Source: PMC5529018, “Discovery of novel brain permeable and G protein-biased beta-1 adrenergic receptor partial agonists for the treatment of neurocognitive disorders” (PLoS ONE, 2017)

Legend:
5-HT 2B = 5-HT 2B (Homo sapiens, UniProt P41595); test: Radioligand binding 5-HT 2B; conditions: S2 Table; hot ligand [3H]LSD; read-out: Binding Affinity Ki
ADR- Alpha 1B = ADR- Alpha 1B (Homo sapiens, UniProt P35368); test: Radioligand binding ADR Alpha 1B; conditions: S2 Table; hot ligand [3H] Prazosin; read-out: Binding Affinity Ki
5-HT 2A = 5-HT 2A (Homo sapiens, UniProt P28223); test: Radioligand binding 5-HT 2A; conditions: S2 Table; hot ligand [3H]Ketanserin; read-out: Binding Affinity Ki
5-HT1B = 5-HT1B (Homo sapiens, UniProt P28222); test: Radioligand binding 5-HT1B; conditions: S2 Table; hot ligand [3H]GR125743; read-out: Binding Affinity Ki
5-HT 1A = 5-HT 1A (Homo sapiens, UniProt P08908); test: Radioligand binding 5-HT 1A; conditions: S2 Table; hot ligand [3H]8-OH-DPAT; read-out: Binding Affinity Ki
[1] = tested on: LPS-induced TNFα response; test: In vivo LPS assay; set-up: species or system C57Bl/6J mice; conditions: 90 min post-LPS
Description: (§1) ; subcutaneous; […]; intraperitoneal; n = 4) or vehicle (5% DMSO/20%PEG400/water; intraperitoneal; n = 12) 15 min prior to LPS (50 ug/kg; intraperitoneal). A control group was injected with vehicle 15 minutes prior to saline (n = 18). Following injections, mice were single-housed. At 90 min post-LPS/saline, mice were deeply anesthetized with isoflurane and blood was collected from the right ventricle via cardiac puncture (23 g needle) into lithium heparin-containing vials (BD microtainer plasma tubes). Subsequently, brains were collected after perfusion with phosphate-buffered saline. Plasma was separated by centrifugation (11,000 rpm for 3 minutes) within 60 min of collection and stored at -80°C until analysis. The concentration of TNFα in the collected plasma was measured by ELISA (Invitrogen, KMC3012) according to the manufacturer’s instruction. The LPS-induced inflammatory response in the CNS was assessed by measuring mRNA expression for genes related to neuroimmune activation in brain tissue according to the previously reported method. Briefly, total RNA was extracted from hippocampus containing coronal sections using the RNeasy Lipid Tissue Mini Kit (Qiagen), and transcribed into cDNA (Superscript III, Invitrogen). PCR was performed in duplicate using TaqMan gene expression assays, TNFα (Mm00443258_m1), IL1b (Mm00434228_m1), IL6 (Mm00446190_m1), and glyceraldehyde-3-phosphate dehydrogenase (GAPDH; Mm99999915_g1). Fold changes of expression relative to control were determined after normalization to GAPDH. Relative quantification and fold change were calculated by the comparative CT method. Brain uptake of STD-101-D1 was determined in brain tissue. […]

[2] = Pharmacokinetic study 1, 4-hr time course; assay type: in vivo, Sprague-Dawley rats; conditions: rat; for AUCinf / Cmax: 10 mg/kg PO
Description: (§2) Two cohorts of Sprague-Dawley rats were used in two independent studies. All animals were fasted overnight before the experiment with free access to water. In study 1, a total of 18 rats were used for a 4 hr time course pharmacokinetic (PK) study. Rats were anesthetized with 3% isoflurane and catheters were implanted into the jugular and/or portal veins for compound administration and/or blood sampling at 1 to 2 days prior to the experiments as previously described. […] Four hours post-dose, rats were deeply anesthetized with isoflurane and blood samples were collected by cardiac puncture. In study 2, a total of 18 rats were used for a 20 min post-dose collection study. […] At 20 min post-dose, rats were deeply anesthetized with isoflurane and blood samples were collected by cardiac puncture. Brains were collected after perfusion with phosphate buffered saline. All plasma samples were immediately separated after collection by centrifugation (11,000 rpm for 3 minutes) and stored at −80°C until analysis. […] Tulobuterol was used as the internal standard. The flow rate was set to 0.45 ml/min. Column temperature was 25°C. […] The injection volume was 20 μl. The mass spectrometer was operated in the positive mode with multiple-reaction monitoring (MRM). […] Mobile phase A consisted of 10 mM ammonium acetate and 0.1% formic acid in LCMS grade water. Mobile phase B consisted of 10 mM ammonium acetate and 0.1% formic acid in LCMS grade acetonitrile:water 90:10% (v/v). […] Five μl of the extracted samples were injected. […] Data acquisition and analysis were performed using the Analyst 1.6.1 software (AB SCIEX, CA).

[3] = Pharmacokinetic study 2, 20-min post-dose collection; assay type: in vivo, Sprague-Dawley rats; conditions: Sprague-Dawley, brain, rat, single administration
Description: as §2

ADR - Alpha 2B = ADR - Alpha 2B (Homo sapiens, UniProt P18089); test: Radioligand binding ADR Alpha 2B; conditions: S2 Table; hot ligand [3H] Rauwolscine; read-out: Binding Affinity Ki
D3 dopamine receptor = D3 dopamine receptor (Homo sapiens, UniProt P35462); test: Radioligand binding D3; conditions: S2 Table; hot ligand [3H]N-Methylspiperone; read-out: Binding Affinity Ki
ADR- Alpha 1A = ADR- Alpha 1A (Homo sapiens, UniProt P35348); test: Radioligand binding ADR Alpha 1A; conditions: S2 Table; hot ligand [3H] Prazosin; read-out: Binding Affinity Ki
[4] = Brain uptake in the in vivo LPS study; set-up: species or system C57Bl/6J mice; conditions: C57Bl/6J, mouse, ip, mice, 3 mg/kg intraperitoneal, 105 min post-dose, read-out: concentration in brain homogenates
Description: as §1, with “Briefly, total RNA was extracted from hippocampus containing coronal sections using the RNeasy Lipid Tissue Mini Kit (Qiagen), and transcribed into cDNA (Superscript III, Invitrogen). PCR was performed in duplicate using TaqMan gene expression assays, TNFα (Mm00443258_m1), IL1b (Mm00434228_m1), IL6 (Mm00446190_m1), and glyceraldehyde-3-phosphate dehydrogenase (GAPDH; Mm99999915_g1).” left out

5-HT6 = 5-HT6 (Homo sapiens, UniProt P50406); test: Radioligand binding 5-HT6; conditions: S2 Table; hot ligand [3H]LSD; read-out: Binding Affinity Ki
Sigma 1 receptor = Sigma 1 receptor (Homo sapiens, UniProt Q99720); test: Radioligand binding Sigma 1 receptor; conditions: S2 Table; hot ligand [3H]Pentazocine(+); read-out: Binding Affinity Ki
5-HT 2C = 5-HT 2C (Homo sapiens, UniProt P28335); test: Radioligand binding 5-HT 2C; conditions: S2 Table; hot ligand [3H]Mesulergine; read-out: Binding Affinity Ki
Sequence of 5-HT 2C (P28335 33-458, species assumed): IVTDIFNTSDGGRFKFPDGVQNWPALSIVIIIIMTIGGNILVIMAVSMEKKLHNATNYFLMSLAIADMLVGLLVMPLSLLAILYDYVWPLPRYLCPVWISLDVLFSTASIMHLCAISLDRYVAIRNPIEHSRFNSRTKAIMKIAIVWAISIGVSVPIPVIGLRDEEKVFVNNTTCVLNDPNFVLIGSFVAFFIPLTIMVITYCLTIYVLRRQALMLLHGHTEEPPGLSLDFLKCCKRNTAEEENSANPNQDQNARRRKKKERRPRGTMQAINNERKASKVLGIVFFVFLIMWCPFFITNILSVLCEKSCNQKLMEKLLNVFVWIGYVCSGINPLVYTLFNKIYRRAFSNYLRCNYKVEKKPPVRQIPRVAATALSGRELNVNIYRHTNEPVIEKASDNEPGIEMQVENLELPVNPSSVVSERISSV

Sequence of D3 dopamine receptor (P35462 whole entry): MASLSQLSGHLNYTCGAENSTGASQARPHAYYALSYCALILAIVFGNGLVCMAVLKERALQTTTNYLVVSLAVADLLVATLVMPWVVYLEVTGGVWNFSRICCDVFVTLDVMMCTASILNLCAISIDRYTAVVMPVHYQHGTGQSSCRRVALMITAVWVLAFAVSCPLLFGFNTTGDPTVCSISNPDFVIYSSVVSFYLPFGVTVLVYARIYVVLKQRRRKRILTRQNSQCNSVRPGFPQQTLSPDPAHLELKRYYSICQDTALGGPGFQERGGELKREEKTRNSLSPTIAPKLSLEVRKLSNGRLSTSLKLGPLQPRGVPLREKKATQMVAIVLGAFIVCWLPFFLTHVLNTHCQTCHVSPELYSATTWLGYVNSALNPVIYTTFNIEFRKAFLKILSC
Sequence of 5-HT6 (P50406 whole entry, species assumed): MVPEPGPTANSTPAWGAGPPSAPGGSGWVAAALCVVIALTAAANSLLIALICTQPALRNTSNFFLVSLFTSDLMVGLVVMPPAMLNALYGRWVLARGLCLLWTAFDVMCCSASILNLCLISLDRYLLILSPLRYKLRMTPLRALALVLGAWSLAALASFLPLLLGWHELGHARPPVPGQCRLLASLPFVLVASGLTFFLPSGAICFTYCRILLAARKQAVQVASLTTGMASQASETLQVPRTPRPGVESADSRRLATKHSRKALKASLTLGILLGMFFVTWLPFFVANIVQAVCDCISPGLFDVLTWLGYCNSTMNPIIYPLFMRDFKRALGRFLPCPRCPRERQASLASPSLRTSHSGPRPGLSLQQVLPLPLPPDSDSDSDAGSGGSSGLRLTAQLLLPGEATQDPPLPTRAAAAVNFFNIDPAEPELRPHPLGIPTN
Sequence of 5-HT 2A (P28223 whole entry, species assumed): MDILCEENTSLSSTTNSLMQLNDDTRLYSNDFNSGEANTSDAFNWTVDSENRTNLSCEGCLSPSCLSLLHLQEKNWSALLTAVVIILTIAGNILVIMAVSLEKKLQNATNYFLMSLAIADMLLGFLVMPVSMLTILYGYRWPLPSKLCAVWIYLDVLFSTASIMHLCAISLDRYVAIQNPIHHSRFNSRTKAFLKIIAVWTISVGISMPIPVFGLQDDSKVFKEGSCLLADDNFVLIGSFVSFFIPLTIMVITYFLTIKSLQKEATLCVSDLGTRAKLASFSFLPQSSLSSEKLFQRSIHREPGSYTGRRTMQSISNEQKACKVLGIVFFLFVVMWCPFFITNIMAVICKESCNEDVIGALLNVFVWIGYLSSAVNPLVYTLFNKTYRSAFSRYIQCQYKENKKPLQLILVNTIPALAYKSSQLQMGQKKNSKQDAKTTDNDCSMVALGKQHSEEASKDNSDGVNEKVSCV
Sequence of ADR- Alpha 1A (P35348 whole entry): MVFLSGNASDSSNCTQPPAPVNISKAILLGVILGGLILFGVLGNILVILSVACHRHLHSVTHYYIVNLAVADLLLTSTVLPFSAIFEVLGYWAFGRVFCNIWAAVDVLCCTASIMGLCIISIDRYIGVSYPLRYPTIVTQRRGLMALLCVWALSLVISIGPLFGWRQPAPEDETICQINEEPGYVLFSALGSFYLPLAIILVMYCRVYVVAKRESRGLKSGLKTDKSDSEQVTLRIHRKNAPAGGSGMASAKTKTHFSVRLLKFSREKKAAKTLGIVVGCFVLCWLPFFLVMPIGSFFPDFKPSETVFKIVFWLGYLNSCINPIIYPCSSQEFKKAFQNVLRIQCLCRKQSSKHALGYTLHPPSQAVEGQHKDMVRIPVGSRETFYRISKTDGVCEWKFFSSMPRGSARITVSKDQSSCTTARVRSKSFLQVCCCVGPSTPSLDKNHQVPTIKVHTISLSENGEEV
Sequence of Sigma 1 receptor (Q99720 whole entry, species assumed): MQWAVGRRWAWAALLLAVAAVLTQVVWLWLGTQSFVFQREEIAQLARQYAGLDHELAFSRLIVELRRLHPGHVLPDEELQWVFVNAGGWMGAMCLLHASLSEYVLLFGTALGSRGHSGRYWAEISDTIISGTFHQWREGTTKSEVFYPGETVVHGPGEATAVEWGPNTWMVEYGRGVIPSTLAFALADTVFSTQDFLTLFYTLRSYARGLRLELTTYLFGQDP
Sequence of 5-HT 1A (P08908 whole entry, species assumed): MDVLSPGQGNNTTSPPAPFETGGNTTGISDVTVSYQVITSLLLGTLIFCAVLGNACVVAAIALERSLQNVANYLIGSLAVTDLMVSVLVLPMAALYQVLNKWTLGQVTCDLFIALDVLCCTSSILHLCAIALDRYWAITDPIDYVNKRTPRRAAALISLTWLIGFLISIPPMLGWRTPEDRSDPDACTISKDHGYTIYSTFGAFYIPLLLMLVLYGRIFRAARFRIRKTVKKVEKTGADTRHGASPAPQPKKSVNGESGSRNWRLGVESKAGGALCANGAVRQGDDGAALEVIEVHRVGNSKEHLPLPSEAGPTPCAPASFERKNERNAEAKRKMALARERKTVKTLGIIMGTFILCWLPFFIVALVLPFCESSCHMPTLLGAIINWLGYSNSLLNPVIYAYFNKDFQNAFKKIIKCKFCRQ
Sequence of 5-HT1B (P28222 whole entry, species assumed): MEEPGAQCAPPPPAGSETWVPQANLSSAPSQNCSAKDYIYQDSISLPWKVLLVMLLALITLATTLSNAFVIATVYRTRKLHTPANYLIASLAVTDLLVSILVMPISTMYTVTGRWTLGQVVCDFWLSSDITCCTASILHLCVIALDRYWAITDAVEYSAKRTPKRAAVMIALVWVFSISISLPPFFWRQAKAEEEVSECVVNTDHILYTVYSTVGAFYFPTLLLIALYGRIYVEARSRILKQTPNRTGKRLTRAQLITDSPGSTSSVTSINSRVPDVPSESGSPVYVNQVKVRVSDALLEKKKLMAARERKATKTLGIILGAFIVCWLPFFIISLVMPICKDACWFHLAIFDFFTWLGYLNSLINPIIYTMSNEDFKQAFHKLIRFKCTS
Sequence of 5-HT 2B (P41595 whole entry, species assumed): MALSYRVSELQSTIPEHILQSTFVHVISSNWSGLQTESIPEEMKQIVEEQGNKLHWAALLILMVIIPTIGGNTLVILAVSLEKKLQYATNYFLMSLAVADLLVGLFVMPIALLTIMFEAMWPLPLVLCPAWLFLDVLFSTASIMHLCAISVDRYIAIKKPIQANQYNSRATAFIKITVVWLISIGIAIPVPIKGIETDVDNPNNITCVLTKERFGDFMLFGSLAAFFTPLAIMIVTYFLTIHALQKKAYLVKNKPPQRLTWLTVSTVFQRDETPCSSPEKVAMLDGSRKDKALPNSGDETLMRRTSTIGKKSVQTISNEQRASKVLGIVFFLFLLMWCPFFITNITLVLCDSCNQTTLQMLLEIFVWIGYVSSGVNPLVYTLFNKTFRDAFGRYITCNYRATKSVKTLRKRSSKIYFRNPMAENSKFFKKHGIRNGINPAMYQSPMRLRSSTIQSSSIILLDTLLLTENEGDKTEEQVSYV
Sequence of ADR - Alpha 2B (P18089 whole entry): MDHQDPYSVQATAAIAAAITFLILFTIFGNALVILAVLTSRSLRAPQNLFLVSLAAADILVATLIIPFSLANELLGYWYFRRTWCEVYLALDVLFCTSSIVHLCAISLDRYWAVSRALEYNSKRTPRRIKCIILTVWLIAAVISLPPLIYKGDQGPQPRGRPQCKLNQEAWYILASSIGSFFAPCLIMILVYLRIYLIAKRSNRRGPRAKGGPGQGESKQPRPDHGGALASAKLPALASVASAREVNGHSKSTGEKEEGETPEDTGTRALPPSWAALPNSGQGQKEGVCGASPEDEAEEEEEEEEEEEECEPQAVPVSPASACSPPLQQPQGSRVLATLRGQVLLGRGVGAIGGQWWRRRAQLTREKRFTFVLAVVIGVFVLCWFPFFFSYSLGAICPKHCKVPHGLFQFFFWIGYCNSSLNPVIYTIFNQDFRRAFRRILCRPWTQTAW
Sequence of ADR- Alpha 1B (P35368 whole entry): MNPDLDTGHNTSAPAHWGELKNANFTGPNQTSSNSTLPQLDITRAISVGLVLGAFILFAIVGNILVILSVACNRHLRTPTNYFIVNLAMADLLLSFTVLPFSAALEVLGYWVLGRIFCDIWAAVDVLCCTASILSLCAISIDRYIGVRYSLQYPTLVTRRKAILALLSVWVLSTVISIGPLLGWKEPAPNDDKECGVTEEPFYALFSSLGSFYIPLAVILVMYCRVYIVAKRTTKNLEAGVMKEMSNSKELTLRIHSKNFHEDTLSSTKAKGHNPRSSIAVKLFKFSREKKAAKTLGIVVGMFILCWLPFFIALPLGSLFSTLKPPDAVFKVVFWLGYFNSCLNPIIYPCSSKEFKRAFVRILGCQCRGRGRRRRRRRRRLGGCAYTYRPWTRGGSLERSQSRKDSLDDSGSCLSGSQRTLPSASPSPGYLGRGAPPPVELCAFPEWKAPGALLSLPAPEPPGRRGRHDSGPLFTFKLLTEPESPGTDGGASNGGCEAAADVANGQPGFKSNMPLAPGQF

COc1ccccc1OCCNC[C@H](O)COc1ccc(O)cc1.COc1ccccc1OCCNC[C@H](O)COc1ccc(O)cc1.O=C(O)/C=C/C(=O)O [STD-101-D1, (S)-4-(2-hydroxy-3-((2-(2-methoxyphenoxy)ethyl)amino)propoxy)phenol hemifumarate]
Ki (5-HT 2B): 25 nM | Ki (ADR- Alpha 1B): 267 nM | Ki (5-HT 2A): 1240 nM | Ki (5-HT1B): 382 nM | Ki (5-HT 1A): 11 nM | LPS-induced systemic (plasma) TNFα response ([1]; 3 mg/kg pre-treatment 15 min prior to LPS): markedly inhibited | CNS IL-1β (mRNA) after LPS ([1]; 3 mg/kg pre-treatment): trend for attenuation | CNS IL-6 (mRNA) after LPS ([1]; 3 mg/kg pre-treatment): no effect | LPS-induced inflammatory TNFα response in the brain (mRNA) ([1]; 3 mg/kg pre-treatment): attenuated | time post-dose at which Cmax was achieved ([2]; 10 mg/kg IP, systemic plasma): 90 min | AUCinf ([2]; portal vein plasma): 362 ± 367 ng·h/mL | Cmax ([2]; portal vein plasma): 946 ± 867 ng/mL | AUCinf ([2]; systemic (jugular vein) plasma): 101 ± 29 ng·h/mL | Cmax ([2]; systemic (jugular vein) plasma): 116 ± 78 ng/mL | concentration at 20 min ([3]; ip, 10 mg/kg intraperitoneally): 288 nM | concentration at 20 min ([3]; iv, 10 mg/kg intravenously): 2500 nM | Ki (ADR - Alpha 2B): 337 nM | Ki (D3 dopamine receptor): 47 nM | Ki (ADR- Alpha 1A): 17 nM | concentration at 105 min [4]: 130 ± 28.2 ng/g | Ki (5-HT6): 1770 nM | Ki (Sigma 1 receptor): 146 nM | Ki (5-HT 2C): 1150 nM
